Laboratory results as given in ChEMBL document CHEMBL1155149, “In vitro activities of 15 antimicrobial agents against 110 toxigenic clostridium difficile clinical isolates collected from 1983 to 2004” (2007).
Values after ≈ are worked out from the molar mass of the structure shown.

tested on: Clostridioides difficile; assay: Antimicrobial activity against Clostridium difficile clinical isolates by agar dilution method; format: functional

Row | Compound | MIC50 [µg/mL] | MIC90 [µg/mL]
1 | C[C@@H](O)[C@H]1C(=O)N2C(C(=O)O)=C(S[C@@H]3CN[C@H](CNS(N)(=O)=O)C3)[C@H](C)[C@H]12 [DORIPENEM] | 1 (≈ 2.38 µM) | 2 (≈ 4.76 µM)
2 | CCc1c(Cl)c(O)c(Cl)c(O)c1C(=O)O[C@H]1[C@H](O)[C@H](OC)[C@H](OC/C2=C\C=C\C[C@H](O)/C(C)=C/[C@H](CC)[C@@H](O[C@@H]3OC(C)(C)[C@@H](OC(=O)C(C)C)[C@H](O)[C@@H]3O)/C(C)=C/C(C)=C/C[C@@H]([C@@H](C)O)OC2=O)O[C@@H]1C [FIDAXOMICIN] | 0.125 (≈ 0.118 µM) | 0.125 (≈ 0.118 µM)
3 | COc1c(N2CCNC(C)C2)c(F)cc2c(=O)c(C(=O)O)cn(C3CC3)c12 (stereo unspecified) [GATIFLOXACIN] | 1 (≈ 2.66 µM) | 16 (≈ 42.6 µM)
4 | C[C@H]1COc2c(N3CCN(C)CC3)c(F)cc3c(=O)c(C(=O)O)cn1c23.C[C@H]1COc2c(N3CCN(C)CC3)c(F)cc3c(=O)c(C(=O)O)cn1c23.O [LEVOFLOXACIN] | 4 | 32
5 | C[C@@H](O)[C@H]1C(=O)N2C(C(=O)O)=C(S[C@@H]3CN[C@H](C(=O)N(C)C)C3)[C@H](C)[C@H]12 [MEROPENEM] | 2 (≈ 5.22 µM) | 2 (≈ 5.22 µM)
6 | Cc1ncc([N+](=O)[O-])n1CCO [METRONIDAZOLE] | 0.125 (≈ 0.73 µM) | 0.25 (≈ 1.46 µM)
7 | CC(=O)Oc1ccccc1C(=O)Nc1ncc([N+](=O)[O-])s1 [NITAZOXANIDE] | 0.06 (≈ 0.195 µM) | 0.125 (≈ 0.407 µM)
8 | CO[C@H]1/C=C/O[C@@]2(C)Oc3c(C)c(O)c4c(=O)c(c5oc6cc(N7CCN(CC(C)C)CC7)cc(O)c6nc-5c4c3C2=O)NC(=O)/C(C)=C\C=C\[C@H](C)[C@H](O)[C@@H](C)[C@@H](O)[C@@H](C)[C@H](OC(C)=O)[C@@H]1C [RIFALAZIL] | 0.0075 (≈ 0.00797 µM) | 0.03 (≈ 0.0319 µM)
9 | CO[C@H]1/C=C/O[C@@]2(C)Oc3c(C)c(O)c4c(O)c(c5c(nc6cc(C)ccn65)c4c3C2=O)NC(=O)/C(C)=C\C=C\[C@H](C)[C@H](O)[C@@H](C)[C@@H](O)[C@@H](C)[C@H](OC(C)=O)[C@@H]1C [RIFAXIMIN] | 0.0075 (≈ 0.00954 µM) | 0.015 (≈ 0.0191 µM)
10 | CN(C)c1cc(NC(=O)CNC(C)(C)C)c(O)c2c1C[C@H]1C[C@H]3[C@H](N(C)C)C(O)=C(C(N)=O)C(=O)[C@@]3(O)C(O)=C1C2=O [TIGECYCLINE] | 0.125 (≈ 0.213 µM) | 0.25 (≈ 0.427 µM)
11 | CCS(=O)(=O)CCn1c([N+](=O)[O-])cnc1C [TINIDAZOLE] | 0.125 (≈ 0.506 µM) | 0.25 (≈ 1.01 µM)
12 | O=C(Nc1ncc([N+](=O)[O-])s1)c1ccccc1O [TIZOXANIDE] | 0.06 (≈ 0.226 µM) | 0.125 (≈ 0.471 µM)
13 | CN[C@H](CC(C)C)C(=O)N[C@H]1C(=O)N[C@@H](CC(N)=O)C(=O)N[C@H]2C(=O)N[C@H]3C(=O)N[C@H](C(=O)N[C@H](C(=O)O)c4cc(O)cc(O)c4-c4cc3ccc4O)[C@H](O)c3ccc(c(Cl)c3)Oc3cc2cc(c3O[C@@H]2O[C@H](CO)[C@@H](O)[C@H](O)[C@H]2O[C@H]2C[C@](C)(N)[C@H](O)[C@H](C)O2)Oc2ccc(cc2Cl)[C@H]1O [VANCOMYCIN] | 1 (≈ 0.69 µM) | 1 (≈ 0.69 µM)
